Calls of active or inactive are those of the source.
Assays:
[1] = biological target: T1, High affinity choline transporter 1 (Homo sapiens, UniProt Q9GZV3); assay: human choline transporter blockers, potency – cell-based, 5-point CRC, membrane potential dye, dose response (AID 504840); type: functional
T1 sequence (Q9GZV3 whole entry): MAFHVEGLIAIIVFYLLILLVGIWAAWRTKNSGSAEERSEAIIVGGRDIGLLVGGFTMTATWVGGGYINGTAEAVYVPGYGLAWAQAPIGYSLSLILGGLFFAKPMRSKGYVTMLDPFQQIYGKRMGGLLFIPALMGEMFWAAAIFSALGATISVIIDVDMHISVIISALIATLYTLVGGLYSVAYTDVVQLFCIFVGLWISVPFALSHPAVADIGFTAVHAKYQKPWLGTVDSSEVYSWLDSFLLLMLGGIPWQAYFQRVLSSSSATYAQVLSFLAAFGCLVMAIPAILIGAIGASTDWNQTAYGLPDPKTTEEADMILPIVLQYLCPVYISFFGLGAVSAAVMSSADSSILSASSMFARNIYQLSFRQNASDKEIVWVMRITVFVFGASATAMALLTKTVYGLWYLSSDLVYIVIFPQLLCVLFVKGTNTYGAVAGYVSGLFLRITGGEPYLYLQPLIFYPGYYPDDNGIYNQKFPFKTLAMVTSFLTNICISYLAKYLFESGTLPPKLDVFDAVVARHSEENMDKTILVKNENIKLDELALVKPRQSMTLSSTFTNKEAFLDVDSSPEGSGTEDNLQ

[2] = biological target: T2, Voltage-gated N-type calcium channel alpha-1B subunit/Amyloid beta A4 precursor protein-binding family A member 1 (Homo sapiens, UniProt Q00975+Q02410); type: protein assay
[3] = biological target: T2, Voltage-gated N-type calcium channel alpha-1B subunit/Amyloid beta A4 precursor protein-binding family A member 1; type: protein assay; remark: listed apart in the source
Leucine aminopeptidase = biological target: T3, Leucine aminopeptidase (Plasmodium falciparum 3D7, UniProt Q8IL11); assay: P. falciparum M17LAP inhibitors, primary screen, biochemical, fluorogenic H-Leu-NHMec substrate, 1536-well (AID 1619); type: functional
T3 sequence (Q8IL11 whole entry): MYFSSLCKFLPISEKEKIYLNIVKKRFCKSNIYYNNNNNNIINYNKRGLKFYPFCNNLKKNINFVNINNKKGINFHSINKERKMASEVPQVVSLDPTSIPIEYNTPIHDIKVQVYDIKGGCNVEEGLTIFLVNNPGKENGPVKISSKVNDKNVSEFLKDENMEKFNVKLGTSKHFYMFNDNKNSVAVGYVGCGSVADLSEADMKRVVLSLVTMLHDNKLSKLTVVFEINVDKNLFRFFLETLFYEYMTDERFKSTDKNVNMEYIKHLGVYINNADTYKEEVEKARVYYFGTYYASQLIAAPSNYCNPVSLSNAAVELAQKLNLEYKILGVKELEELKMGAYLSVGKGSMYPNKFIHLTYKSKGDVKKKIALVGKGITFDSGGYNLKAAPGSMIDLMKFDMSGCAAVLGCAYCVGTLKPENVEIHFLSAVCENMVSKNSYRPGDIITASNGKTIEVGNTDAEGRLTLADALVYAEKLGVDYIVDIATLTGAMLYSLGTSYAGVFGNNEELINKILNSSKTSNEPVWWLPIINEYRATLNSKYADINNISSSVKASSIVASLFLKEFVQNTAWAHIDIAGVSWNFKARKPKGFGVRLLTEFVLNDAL

Nonstructural protein 1 = Nonstructural protein 1 (Influenza A virus, UniProt Q194T2); type: functional, Influenza A virus (A/California/07/2009(H1N1))
[4] = biological target: Peroxisome proliferator-activated receptor gamma/Nuclear receptor coactivator 2 (Homo sapiens, UniProt P37231); assay: (§1) TR-FRET dose response biochemical High Throughput Screening assay for agonists of the steroid receptor coactivator 2 (SRC-2) recruitment by the peroxisome proliferator-activated receptor gamma (PPAR gamma): non-selective agonists. [Related pubchem assays: 1297, 1032 ]; type: functional
[5] = biological target: Peroxisome proliferator-activated receptor gamma/Nuclear receptor coactivator 1 (Homo sapiens, UniProt P37231); assay: as §1, with “1 (SRC-1)” for “2 (SRC-2)”, “assays (depositor defined):AID1300, AID1808, AID504735, AID631]” for “assays: 1297, 1032 ]”; type: protein assay
[6] = biological target: Peroxisome proliferator-activated receptor gamma/Nuclear receptor coactivator 3 (Homo sapiens, UniProt P37231); assay: as §1, with “3 (SRC-3)” for “2 (SRC-2)”, “1301 (Confirmation screen.), 1048 (Primary screen.)]” for “1297, 1032 ]”; type: functional
H9c2 = assay: cells; type: functional, cell-based; conditions: Rattus norvegicus, H9c2, Myocardium
[7] = biological target: Glucose-6-phosphate 1-dehydrogenase (Homo sapiens, UniProt P11413); assay: inhibition of Homo sapiens G6PD, dose series – biochemical, fluorescence, selectivity assay for P. falciparum G6PD inhibitor project, dose response (AID 504792); type: functional
Sequence of Glucose-6-phosphate 1-dehydrogenase (P11413 whole entry): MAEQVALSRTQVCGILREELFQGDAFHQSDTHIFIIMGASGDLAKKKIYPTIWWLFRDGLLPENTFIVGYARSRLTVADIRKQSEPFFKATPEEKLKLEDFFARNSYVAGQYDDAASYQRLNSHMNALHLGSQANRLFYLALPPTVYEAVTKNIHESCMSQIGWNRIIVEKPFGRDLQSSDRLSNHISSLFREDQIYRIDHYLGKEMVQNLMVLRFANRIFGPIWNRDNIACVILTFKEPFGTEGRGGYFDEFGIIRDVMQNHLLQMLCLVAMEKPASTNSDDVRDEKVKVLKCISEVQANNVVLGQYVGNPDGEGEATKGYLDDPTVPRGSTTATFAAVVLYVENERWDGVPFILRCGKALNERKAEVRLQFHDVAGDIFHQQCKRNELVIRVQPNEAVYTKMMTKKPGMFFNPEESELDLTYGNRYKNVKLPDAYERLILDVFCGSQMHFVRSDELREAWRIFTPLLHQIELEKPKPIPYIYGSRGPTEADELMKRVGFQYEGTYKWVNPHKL

Sequence of Nonstructural protein 1 (Q194T2 whole entry): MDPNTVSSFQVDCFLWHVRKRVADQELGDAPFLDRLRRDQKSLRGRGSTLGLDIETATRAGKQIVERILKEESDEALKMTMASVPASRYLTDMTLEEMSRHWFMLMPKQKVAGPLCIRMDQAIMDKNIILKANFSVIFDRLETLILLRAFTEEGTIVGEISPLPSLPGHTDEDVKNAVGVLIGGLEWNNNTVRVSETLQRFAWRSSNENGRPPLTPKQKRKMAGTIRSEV
Sequence of Peroxisome proliferator-activated receptor gamma/Nuclear receptor coactivator 3 (P37231 whole entry): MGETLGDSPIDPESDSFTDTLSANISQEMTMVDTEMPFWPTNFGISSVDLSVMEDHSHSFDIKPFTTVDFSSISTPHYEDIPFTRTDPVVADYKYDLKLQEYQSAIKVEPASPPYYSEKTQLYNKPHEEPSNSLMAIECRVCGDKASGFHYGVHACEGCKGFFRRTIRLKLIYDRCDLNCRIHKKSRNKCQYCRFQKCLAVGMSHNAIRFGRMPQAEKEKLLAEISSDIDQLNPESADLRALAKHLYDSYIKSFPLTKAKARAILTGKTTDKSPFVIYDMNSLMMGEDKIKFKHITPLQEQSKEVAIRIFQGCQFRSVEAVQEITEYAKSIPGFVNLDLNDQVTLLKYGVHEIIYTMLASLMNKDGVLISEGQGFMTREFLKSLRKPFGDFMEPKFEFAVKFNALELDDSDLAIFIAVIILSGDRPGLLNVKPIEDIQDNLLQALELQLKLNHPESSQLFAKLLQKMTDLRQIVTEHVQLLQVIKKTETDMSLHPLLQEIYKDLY
Sequence of Peroxisome proliferator-activated receptor gamma/Nuclear receptor coactivator 3 (Q9Y6Q9 whole entry, further chain): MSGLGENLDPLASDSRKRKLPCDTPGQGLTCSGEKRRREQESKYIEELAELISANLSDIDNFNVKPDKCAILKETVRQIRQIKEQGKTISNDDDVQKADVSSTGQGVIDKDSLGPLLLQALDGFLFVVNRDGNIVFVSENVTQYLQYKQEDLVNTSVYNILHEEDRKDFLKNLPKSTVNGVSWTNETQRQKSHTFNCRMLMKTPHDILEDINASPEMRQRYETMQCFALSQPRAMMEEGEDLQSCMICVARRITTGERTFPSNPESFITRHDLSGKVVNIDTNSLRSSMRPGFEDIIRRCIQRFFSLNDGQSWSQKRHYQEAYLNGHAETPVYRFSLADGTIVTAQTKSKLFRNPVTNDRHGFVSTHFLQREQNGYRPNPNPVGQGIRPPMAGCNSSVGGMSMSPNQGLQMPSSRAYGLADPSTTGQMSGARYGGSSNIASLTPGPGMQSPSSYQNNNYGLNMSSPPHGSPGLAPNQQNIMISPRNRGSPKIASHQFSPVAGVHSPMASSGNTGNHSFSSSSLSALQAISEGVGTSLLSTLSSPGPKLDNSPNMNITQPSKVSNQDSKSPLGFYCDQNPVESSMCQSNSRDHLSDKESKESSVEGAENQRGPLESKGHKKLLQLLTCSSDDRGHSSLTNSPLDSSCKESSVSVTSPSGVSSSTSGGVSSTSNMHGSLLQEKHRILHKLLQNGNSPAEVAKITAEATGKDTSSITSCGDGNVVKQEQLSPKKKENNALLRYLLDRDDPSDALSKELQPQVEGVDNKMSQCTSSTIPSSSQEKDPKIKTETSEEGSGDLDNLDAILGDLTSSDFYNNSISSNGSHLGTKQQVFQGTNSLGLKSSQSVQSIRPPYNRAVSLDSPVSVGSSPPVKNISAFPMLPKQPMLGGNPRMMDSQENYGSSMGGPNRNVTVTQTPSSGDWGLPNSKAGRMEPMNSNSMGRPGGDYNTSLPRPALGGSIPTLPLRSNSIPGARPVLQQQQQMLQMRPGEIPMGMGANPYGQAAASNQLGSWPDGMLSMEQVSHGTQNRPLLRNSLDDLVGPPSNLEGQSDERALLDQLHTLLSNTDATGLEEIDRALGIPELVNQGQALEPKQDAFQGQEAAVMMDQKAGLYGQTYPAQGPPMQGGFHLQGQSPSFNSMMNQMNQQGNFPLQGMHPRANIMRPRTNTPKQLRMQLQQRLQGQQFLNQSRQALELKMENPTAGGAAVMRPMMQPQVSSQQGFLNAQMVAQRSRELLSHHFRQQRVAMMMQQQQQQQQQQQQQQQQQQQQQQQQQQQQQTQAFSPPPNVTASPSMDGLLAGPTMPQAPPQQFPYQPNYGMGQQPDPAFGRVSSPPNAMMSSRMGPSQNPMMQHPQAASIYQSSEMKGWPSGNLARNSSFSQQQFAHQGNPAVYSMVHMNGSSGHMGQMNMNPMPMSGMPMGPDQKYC
Sequence of Peroxisome proliferator-activated receptor gamma/Nuclear receptor coactivator 1 (P37231 whole entry): as the sequence (P37231 whole entry) above
Sequence of Peroxisome proliferator-activated receptor gamma/Nuclear receptor coactivator 1 (Q15788 whole entry, further chain): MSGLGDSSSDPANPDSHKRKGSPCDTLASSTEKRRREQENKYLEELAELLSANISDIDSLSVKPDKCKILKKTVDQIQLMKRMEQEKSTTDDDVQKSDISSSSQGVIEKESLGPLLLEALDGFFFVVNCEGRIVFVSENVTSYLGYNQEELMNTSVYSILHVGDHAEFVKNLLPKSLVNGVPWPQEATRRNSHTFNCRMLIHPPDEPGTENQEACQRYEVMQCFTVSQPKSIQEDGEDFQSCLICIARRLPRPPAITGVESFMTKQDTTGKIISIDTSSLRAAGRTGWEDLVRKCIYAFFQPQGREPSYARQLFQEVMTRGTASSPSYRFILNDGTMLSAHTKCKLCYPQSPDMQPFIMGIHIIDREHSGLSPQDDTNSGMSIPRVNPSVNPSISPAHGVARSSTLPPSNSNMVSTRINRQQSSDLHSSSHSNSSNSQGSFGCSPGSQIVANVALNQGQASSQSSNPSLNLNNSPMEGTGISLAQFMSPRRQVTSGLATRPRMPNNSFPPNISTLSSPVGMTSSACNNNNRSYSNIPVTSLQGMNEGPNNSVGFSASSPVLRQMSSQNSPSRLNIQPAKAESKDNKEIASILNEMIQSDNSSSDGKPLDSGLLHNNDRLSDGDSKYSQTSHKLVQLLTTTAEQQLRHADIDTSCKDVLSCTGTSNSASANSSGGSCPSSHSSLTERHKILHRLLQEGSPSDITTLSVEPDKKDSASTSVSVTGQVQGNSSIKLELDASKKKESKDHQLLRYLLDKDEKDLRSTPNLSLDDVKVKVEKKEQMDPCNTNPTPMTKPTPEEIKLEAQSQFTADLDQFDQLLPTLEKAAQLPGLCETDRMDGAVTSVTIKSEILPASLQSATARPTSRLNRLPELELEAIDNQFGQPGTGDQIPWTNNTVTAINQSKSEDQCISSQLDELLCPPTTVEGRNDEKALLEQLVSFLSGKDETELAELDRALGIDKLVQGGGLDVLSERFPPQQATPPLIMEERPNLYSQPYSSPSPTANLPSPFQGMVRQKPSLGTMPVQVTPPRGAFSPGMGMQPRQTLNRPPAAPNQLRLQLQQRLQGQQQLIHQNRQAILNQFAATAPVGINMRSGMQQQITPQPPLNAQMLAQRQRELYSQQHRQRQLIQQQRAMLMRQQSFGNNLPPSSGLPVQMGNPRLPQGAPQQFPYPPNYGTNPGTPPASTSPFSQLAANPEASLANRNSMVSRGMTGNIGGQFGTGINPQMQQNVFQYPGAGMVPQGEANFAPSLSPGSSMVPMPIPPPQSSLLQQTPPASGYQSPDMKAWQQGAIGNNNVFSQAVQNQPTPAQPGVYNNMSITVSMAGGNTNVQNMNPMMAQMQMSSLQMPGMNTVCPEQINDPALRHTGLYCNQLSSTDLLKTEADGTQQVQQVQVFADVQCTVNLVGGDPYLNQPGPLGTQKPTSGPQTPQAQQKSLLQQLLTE

## CCCn1c2ccccc2c2cnn(CC(=O)OC)c(=O)c21
[1]
  IC50: 15.8 µM (active)

## O=C(COC(=O)CNC(=O)c1ccc(-c2ccccc2)cc1)NCc1ccco1
[2]
  IC50: 49.5 µM (active)
[3]
  IC50: 5.35 µM (active)

## O=C(NCc1cccnc1)c1ccc(COc2ccccc2Cl)o1
[1]
  IC50: 14.5 µM (active)

## Cc1ccc(NC(S)=Nc2ccc3nc(-c4ccccn4)c(-c4ccccn4)nc3c2)cc1C
[1]
  IC50: 13.2 µM (active)

## Fc1ccccc1CCNc1c2c(nc3ncnn13)CCCC2
[1]
  IC50: 13.8 µM (active)

## Cc1ccc(S(=O)(=O)Nc2nncs2)cc1
Leucine aminopeptidase
  IC50: 23.2 µM (active)

## C=CCN1C=C/C(=C\C=C(C#N)C#N)c2ccccc21
Nonstructural protein 1
  IC50: 14.2 µM (active)

## CCn1c(=O)cc(SCC(=O)Nc2cccnc2)c2ccccc21
[4]
  EC50: > 79.4 µM (not active)
[5]
  EC50: > 79.4 µM (inactive)
[6]
  EC50: > 79.4 µM (not active)

## COc1ccccc1OCC(=O)N/N=C/c1cccc2cccnc12
Nonstructural protein 1
  IC50: 13.5 µM (active)
H9c2
  IC50: 10.9 µM (active)

## CNS(=O)(=O)c1ccc(-c2ccc(C=C3C(=O)NC(=O)NC3=O)o2)cc1
[7]
  IC50: 51.2 µM (inactive)

## CCCCNC(=O)CSc1cc(=O)n(C)c2ccccc12
[4]
  EC50: > 79.4 µM (not active)
[5]
  EC50: > 79.4 µM (inactive)
[6]
  EC50: > 79.4 µM (not active)

## Cc1ccc(S(=O)(=O)/N=C2\C(=O)c3ccccc3C(O)=C2N2CCN(c3ccccc3F)CC2)cc1
Nonstructural protein 1
  IC50: 79.2 µM (active)
